Measured values reported in EP1769804B1, “hPTH(1-34) for use in preventing or reducing the incidence or severity of vertebral and / or non vertebral fracture in a male human” (priority 1998, dated 2012).
Marks after values point to notes of the source that are not given here.

Experiments:
Type in all cases: in vivo, Macaca fascicularis
Ovariectomized Primates [1] = assay: Biomechanical material properties of beam specimens from femur diaphysis; conditions: for E (Young's modulus) / u (toughness) / εa / σa: femur diaphysis beam, mean ± SEM
Source text: (§1) Biomechanical tests were done on lumbar vertebrae L-3 to L-4, the femur neck, humerus midshaft, and on a cortical bone specimen machined from the femur diaphysis (measures defined in Table 2). Conventional static and dynamic histomorphometry were done (measures described in Table 6) on the humerus midshaft, lumbar vertebra L-2, femoral neck, femur midshaft, the radius midshaft and distal radius. Initial statistical analyses compared all groups to vehicle-treated ovariectomized controls. The data is suitable for additional exploratory analyses to examine dose dependency, effects of withdrawal, interactions between outcomes, and changes in time by methods known to those of skill in the art. All assays were conducted and determined by methods known in the art.

Ovariectomized Primates [2] = assay: Biomechanical measures of cortical bone of the humerus midshaft; conditions: for Fy / S (stiffness) / t (average cortical thickness): humerus midshaft, mean ± SEM
Source text: as §1

[3] = tested on: ovariectomized cynomolgus primates; assay: Serum and urine measures in the primate study
Source text: (§2) All animals were euthanized after 18 months.

[4] = tested on: ovariectomized cynomolgus primates; assay: Iliac biopsy histomorphometry (cancellous bone)
Source text: as §2

[5] = compared to ovariectomized controls
[6] = PTH1-W: withdrawal after 1 µg/kg for 12 months
[7] = PTH5-W: withdrawal after 5 µg/kg for 12 months
[8] = compared to ovariectomized, 24 hours after injection

## teriparatide [rhPTH(1-34)]
Ovariectomized Primates [1]; [5]
  material properties of beam specimens machined from the femoral diaphysis: did not alter
Ovariectomized Primates [1]; [6]
  E (Young's modulus): 16.6 ± 0.6 Gpa
  u (toughness): 5.3 ± 0.4 mJ/m^3
  εa: 0.034 ± 0.002
  σa: 214 ± 6 Mpa
Ovariectomized Primates [1]; PTH1: 1 µg/kg for 18 months
  E (Young's modulus): 17.1 ± 0.4 Gpa
  u (toughness): 6.1 ± 0.4 mJ/m^3
  εa: 0.036 ± 0.002
  σa: 222 ± 4 Mpa
Ovariectomized Primates [1]; [7]
  E (Young's modulus): 15.3 ± 0.6^a Gpa
  u (toughness): 6.1 ± 0.4 mJ/m^3
  εa: 0.038 ± 0.002
  σa: 208 ± 6 Mpa
Ovariectomized Primates [1]; PTH5: 5 µg/kg for 18 months
  E (Young's modulus): 15.4 ± 0.6^a Gpa
  u (toughness): 5.4 ± 0.4 mJ/m^3
  εa: 0.034 ± 0.002
  σa: 206 ± 6 Mpa
Ovariectomized Primates [2]; [5]
  measures in the cortical diaphysis of the humerus midshaft: did not alter
Ovariectomized Primates [2]; [6]
  Fy: 689 ± 23 N
  S (stiffness): 573 ± 20 N/mm
  t (average cortical thickness): 1.66 ± 0.04 mm
Ovariectomized Primates [2]; PTH1: 1 µg/kg for 18 months
  Fy: 654 ± 23 N
  S (stiffness): 544 ± 23 N/mm
  t (average cortical thickness): 1.68 ± 0.03 mm
Ovariectomized Primates [2]; [7]
  Fy: 707 ± 24 N
  S (stiffness): 573 ± 24 N/mm
  t (average cortical thickness): 1.72 ± 0.05 mm
Ovariectomized Primates [2]; PTH5: 5 µg/kg for 18 months
  Fy: 680 ± 15^a N
  S (stiffness): 548 ± 18 N/mm
  t (average cortical thickness): 1.80 ± 0.04^a mm
[3]; bone formation markers
  serum total alkaline phosphatase (ALP) and osteocalcin: restored levels back to sham values
[3]; [8]
  1,25-dihydroxyvitamin D: higher
  endogenous PTH: lower
  serum phosphate: lower
  urinary cAMP: higher
[3]; marker of bone resorption, compared to ovariectomized controls
  Urinary C-telopeptide (CrossLaps) excretion: not altered
[4]; iliac biopsy
  mineralization, activation frequency, or remodeling periods: did not affect
[4]; iliac biopsy at 15 months, compared to ovariectomized
  cancellous bone area: increased cancellous bone area
